In patent US20240180883A1, “TREATMENT OF MIGRAINE” (Allergan Pharmaceuticals International Limited, priority 2020, published 2024):
Entries after “also recorded” stand apart in the source; their conditions may differ.

How the values were obtained:
plasma protein = assay: Plasma protein binding in vitro; format: in vitro ADME
[1] = system: adult patients with migraine; assay: Phase 3 Study 1 (NCT02828020) migraine efficacy; format: in vivo, human
From the text: In two randomized, double-blind, placebo-controlled, Ph. […] Of the ubrogepant-treated patients in these two studies, approximately 89% were female, 82% were white, 15% were Black, and 17% were of Hispanic or Latino ethnicity. The mean age at study entry was 41 years (range of 18-75 years).
In all studies, patients were instructed to treat a migraine with moderate to severe headache pain intensity. […] Up to 23% of patients were taking preventive medications for migraine at baseline. None of these patients were on concomitant preventive medication that act on the CGRP pathway.
The primary efficacy analyses were conducted in patients who treated a migraine with moderate to severe pain. […] Pain freedom was defined as a reduction of moderate or severe headache pain to no pain, and MBS freedom was defined as the absence of the self-identified MBS (i.e., photophobia, phonophobia, or nausea). Among patients who selected an MBS, the most commonly selected was photophobia (56%), followed by phonophobia (24%) and nausea (19%).
Table 14 also presents the results of the analyses of the percentage of patients achieving pain relief at 2 hours (defined as a reduction in migraine pain from moderate or severe to mild or none) post-dose and the percentage of patients achieving sustained pain freedom between 2 to 24 hours post-dose.

adults with migraine = assay: Consistency of treatment, ACHIEVE trials and long-term extension trial; format: in vivo, human
Experimental: Therapeutic gain (TG) was calculated for the ACHIEVE trial and separately for the first 3 attacks of moderate/severe pain intensity treated in the long term extension trial, using placebo data from ACHIEVE. The TG ratio (TGR) was the TG from the LTE divided by the TG in the ACHIEVE trial multiplied by 100. Following consultation with regulatory agencies, a consistency threshold for the TGR of 50% or greater was used for this analysis.

CYP3A4 = target: T1, CYP3A4 (Homo sapiens, UniProt P08684); assay: Expected interaction with weak or moderate CYP3A4 inducers
T1 construct: mainly eliminated by CYP3A4 metabolism; from tissue; host or cells: in vivo, the patient's own enzyme (the gut wall is mentioned)

BCRP and/or P-gp = assay: Predicted interaction with BCRP and/or P-gp inhibitors
[2] = Total: participants who took any investigational product
[3] = Total: participants who took any investigative product
[4] = Treatment A: ubrogepant 100 mg single dose, fasted
[5] = Treatment C: 600 mg rifampin co-administered with 100 mg ubrogepant on Day 14

T1 sequence (P08684 whole entry): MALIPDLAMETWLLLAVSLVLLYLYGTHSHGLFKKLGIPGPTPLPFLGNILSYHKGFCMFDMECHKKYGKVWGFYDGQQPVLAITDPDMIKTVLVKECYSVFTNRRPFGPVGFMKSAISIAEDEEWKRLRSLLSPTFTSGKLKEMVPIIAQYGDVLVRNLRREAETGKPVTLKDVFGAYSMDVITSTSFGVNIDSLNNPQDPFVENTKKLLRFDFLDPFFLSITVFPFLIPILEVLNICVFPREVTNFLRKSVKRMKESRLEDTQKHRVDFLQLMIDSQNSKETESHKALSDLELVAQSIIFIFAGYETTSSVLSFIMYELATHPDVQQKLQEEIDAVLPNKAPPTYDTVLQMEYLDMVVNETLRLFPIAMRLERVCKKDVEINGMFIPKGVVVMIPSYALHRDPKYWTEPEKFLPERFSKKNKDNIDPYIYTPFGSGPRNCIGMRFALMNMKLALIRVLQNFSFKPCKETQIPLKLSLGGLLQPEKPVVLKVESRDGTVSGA

Question: What does the source list for `C[C@@H]1[C@H](c2ccccc2)C[C@H](NC(=O)c2cnc3c(c2)C[C@@]2(C3)C(=O)Nc3ncccc32)C(=O)N1CC(F)(F)F` [ubrogepant, (3′S)-N-((3S,5S,6R)-6-methyl-2-oxo-5-phenyl-1-(2,2,2-trifluoroethyl)piperidin-3-yl)-2′-oxo-1′,2′,5,7-etrahydrospiro[cyclopenta[b]pyridine-6,3′-pyrrolo[2,3-b]pyridine]-3-carboxamide]?
Answer: fraction unbound (plasma protein): 0.13; Most Bothersome Symptom Free at 2 hours, % Responders ([1]; Study 1, 50 mg): 38.6%; Most Bothersome Symptom Free at 2 hours, Difference from Placebo ([1]; Study 1, 50 mg): 10.8%; Pain Relief at 2 hours, % Responders ([1]; Study 1, 50 mg): 60.7%; Pain free at 2 hours, % Responders ([1]; Study 1, 50 mg): 19.2%; Pain free at 2 hours, Difference from Placebo ([1]; Study 1, 50 mg): 7.4%; Sustained pain freedom at 2-24 hours, % Responders ([1]; Study 1, 50 mg): 12.7%; Most Bothersome Symptom Free at 2 hours, % Responders ([1]; Study 1, 100 mg): 37.7%; Most Bothersome Symptom Free at 2 hours, Difference from Placebo ([1]; Study 1, 100 mg): 9.9%; Pain Relief at 2 hours, % Responders ([1]; Study 1, 100 mg): 61.4%; Pain free at 2 hours, % Responders ([1]; Study 1, 100 mg): 21.2%; Pain free at 2 hours, Difference from Placebo ([1]; Study 1, 100 mg): 9.4%; Sustained pain freedom at 2-24 hours, % Responders ([1]; Study 1, 100 mg): 15.4%; incidence of photophobia and phonophobia compared to placebo ([1]; both doses (50 and 100 mg)): reduced; rate of 2-hour pain relief (adults with migraine; ACHIEVE ubrogepant 100 mg treated attacks): 61.4%; rate of 2 hour pain freedom (adults with migraine; ACHIEVE ubrogepant 100 mg-treated attacks): 21.2%; rate of 2 hour pain freedom (adults with migraine; LTE trial, 100 mg, mean across first 3 attacks): 21.6%; rate of 2-hour pain relief (adults with migraine; LTE trial, 100 mg, mean across first three attacks): 68.0%; reduction of ubrogepant exposure (CYP3A4; moderate CYP3A4 inducers): 50-80%; reduction of ubrogepant exposure (CYP3A4; weak CYP3A4 inducers): 20-50%; highest predicted potential increase in exposure (BCRP and/or P-gp): ≤ 2 fold; participants with headache (Study B: adverse events; Study B, whole trial): 13.3%; Any AE (Study B: adverse events; [2]): 6 (20.0) n (%); Dry Mouth (Study B: adverse events; [2]): 1 (3.3) n (%); Flatulence (Study B: adverse events; [2]): 1 (3.3) n (%); Gastrointestinal Disorders (Study B: adverse events; [2]): 4 (13.3) n (%); Headache (Study B: adverse events; [2]): 4 (13.3) n (%); Nausea (Study B: adverse events; [2]): 2 (6.7) n (%); Nervous System Disorders (Study B: adverse events; [2]): 4 (13.3) n (%); AEs leading to discontinuation (Study B: adverse events; [3]): 0 n (%); Deaths (Study B: adverse events; [3]): 0 n (%); SAEs (Study B: adverse events; [3]): 0 n (%); TEAEs (Study B: adverse events; [3]): 6 (20.0) n (%); Treatment related TEAEs (Study B: adverse events; [3]): 6 (20.0) n (%); AEs leading to discontinuation (Study B: adverse events; [4]): 0 n (%); Any AE (Study B: adverse events; [4]): 4 (13.3) n (%); Deaths (Study B: adverse events; [4]): 0 n (%); Dry Mouth (Study B: adverse events; [4]): 1 (3.3) n (%); Flatulence (Study B: adverse events; [4]): 1 (3.3) n (%); Gastrointestinal Disorders (Study B: adverse events; [4]): 2 (6.7) n (%); Headache (Study B: adverse events; [4]): 2 (6.7) n (%); Nausea (Study B: adverse events; [4]): 0 n (%); Nervous System Disorders (Study B: adverse events; [4]): 2 (6.7) n (%); SAEs (Study B: adverse events; [4]): 0 n (%); TEAEs (Study B: adverse events; [4]): 4 (13.3) n (%); Treatment related TEAEs (Study B: adverse events; [4]): 4 (13.3) n (%); AEs leading to discontinuation (Study B: adverse events; [5]): 0 n (%); Any AE (Study B: adverse events; [5]): 2 (7.1) n (%); Deaths (Study B: adverse events; [5]): 0 n (%); Dry Mouth (Study B: adverse events; [5]): 0 n (%); Flatulence (Study B: adverse events; [5]): 0 n (%); Gastrointestinal Disorders (Study B: adverse events; [5]): 2 (7.1) n (%); Headache (Study B: adverse events; [5]): 1 (3.6) n (%); Nausea (Study B: adverse events; [5]): 2 (7.1) n (%); Nervous System Disorders (Study B: adverse events; [5]): 1 (3.6) n (%); SAEs (Study B: adverse events; [5]): 0 n (%); TEAEs (Study B: adverse events; [5]): 2 (7.1) n (%); Treatment related TEAEs (Study B: adverse events; [5]): 2 (7.1) n (%); safety and tolerability (Study B: adverse events; single oral dose coadministered with multiple doses of rifampin): safe and generally well tolerated; also recorded: safe and generally well-tolerated
